Results from publication PMC9920298, “Coronavirus Inhibitors Targeting nsp16” (Molecules, 2023).

Columns and labels:
[1] = target: GST-NSP16 SARS-CoV-1 (Severe acute respiratory syndrome coronavirus, UniProt P0C6X7); assay: biochemical; format: binding
[2] = target: GST-NSP16 MERS-CoV (Middle East respiratory syndrome-related coronavirus, UniProt K9N7C7); assay: biochemical; format: binding
[3] = target: GST-NSP16 SARS-CoV-2 (Severe acute respiratory syndrome coronavirus 2, UniProt P0DTD1); assay: biochemical; format: binding
[4] = Cell viability (resazurin) assay in normal lung fibroblasts; details: human, MRC-5 lung fibroblasts

Sequence of GST-NSP16 MERS-CoV (K9N7C7 6776-7078 limits assumed): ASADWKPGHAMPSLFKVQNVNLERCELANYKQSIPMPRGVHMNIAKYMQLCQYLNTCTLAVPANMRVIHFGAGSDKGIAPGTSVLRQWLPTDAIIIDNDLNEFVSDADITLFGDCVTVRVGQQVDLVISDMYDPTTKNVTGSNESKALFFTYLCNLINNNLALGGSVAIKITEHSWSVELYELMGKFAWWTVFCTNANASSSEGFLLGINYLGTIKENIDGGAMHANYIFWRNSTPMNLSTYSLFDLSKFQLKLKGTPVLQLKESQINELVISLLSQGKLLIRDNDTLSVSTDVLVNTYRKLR

Structure (SMILES)	Binding to SARS-CoV-1 nsp16 by MST (in words) [1]	Binding to MERS-CoV nsp16 by MST (in words) [2]	Binding to SARS-CoV-2 nsp16 by MST (in words) [3]	Kd [3]	Kd [1]	Kd [2]	CC50 at 72 h [4]
Cc1ccc2ccccc2c1COc1ccc2c(-c3cc4ccccc4oc3=O)cc(=O)oc2c1 [ZINC2121012, 7′-[(2-methylnaphthalen-1-yl)methoxy]-2H,2′H-3,4′-bichromene-2,2′-dione]	bound to neither SARS-CoV-1 nor MERS-CoV	bound to neither SARS-CoV-1 nor MERS-CoV	strong binding	23.1 ± 1.05 µM			
O=c1cc(-c2cc3ccccc3oc2=O)c2ccc(OCc3cccc4ccccc34)cc2o1 [ZINC2129028, 7′-(naphthalen-1-ylmethoxy)-2H,2′H-3,4′-bichromene-2,2′-dione]			strong binding	60 ± 2.53 µM	56.4 ± 1.85 µM	48.1 ± 4.12 µM	18.5 ± 0.66 µM
COc1cccc2c(-c3cc4ccc(OCc5ccc6ccccc6c5)cc4oc3=O)cc(=O)oc12 [ZINC12880820, 8′-methoxy-7-[(naphthalen-2-yl)methoxy]-2H,2′H-[3,4′-bichromene]-2,2′-dione]			strong binding	29.1 ± 2.86 µM	> 100 µM	36.4 ± 1.12 µM	
